We go through 18 molecules from the NIST ThermoML archive (doi:10.1016/j.jct.2015.02.023).

± gives the expanded uncertainty stated by the source.

The data set can be described thus: activity coefficient (dimensionless); of the first substance listed, at infinite dilution; xn = mol fraction of the nth substance listed. Particulars: 101.33 kPa, Liquid, Chromatography, x1 = 0.

As for `C[N+](=O)[O-]` [nitromethane] + CCn1cc[n+](C)c1.CO[PH](=O)[O-], the activity coefficient by setting is: (313.15 K) 0.75 ± 0.049; (333.15 K) 0.787 ± 0.051; (353.15 K) 0.831 ± 0.054; (373.15 K) 0.873 ± 0.056.

On to `c1ccccc1` [benzene] + CCn1cc[n+](C)c1.CO[PH](=O)[O-], for which the activity coefficient came out at 3.44 ± 0.23 (313.15 K), 3.52 ± 0.24 (333.15 K), 3.61 ± 0.25 (353.15 K) and 3.75 ± 0.26 (373.15 K).

Consider `Cc1cccc(C)c1` [1,3-dimethylbenzene] + CO[PH](=O)[O-].Cn1cc[n+](C)c1, for which the activity coefficient (313.15 K) stood at 24.5 ± 1.7, the activity coefficient (323.15 K) stood at 24.4 ± 1.7, the activity coefficient (333.15 K) turned out to be 23.6 ± 1.6 and the activity coefficient (343.15 K) came out at 23.1 ± 1.6.

With `ClC(Cl)Cl` [trichloromethane] + CCn1cc[n+](C)c1.CO[PH](=O)[O-], the activity coefficient runs as follows: (313.15 K) 0.277 ± 0.03; (333.15 K) 0.358 ± 0.033; (353.15 K) 0.451 ± 0.036; (373.15 K) 0.544 ± 0.04.

For the molecule `Cc1cccc(C)c1` [1,3-dimethylbenzene] + CCn1cc[n+](C)c1.CO[PH](=O)[O-], the activity coefficient runs as follows: (313.15 K) 18.6 ± 1.3; (333.15 K) 18.8 ± 1.3; (353.15 K) 20.4 ± 1.4; (373.15 K) 24.9 ± 1.7.

In the case of `CC#N` [acetonitrile] + CCn1cc[n+](C)c1.CO[PH](=O)[O-], the activity coefficient (313.15 K) amounted to 1.08 ± 0.07, the activity coefficient (333.15 K) amounted to 1.11 ± 0.07, the activity coefficient (353.15 K) turned out to be 1.19 ± 0.08 and the activity coefficient (373.15 K) worked out at 1.25 ± 0.08.

As to `CCCCCCCCCCCC` [dodecane] + CCn1cc[n+](C)c1.CO[PH](=O)[O-], the activity coefficient stood at 1740 ± 120 (313.15 K), 1540 ± 110 (333.15 K), 1300 ± 90 (353.15 K) and 915 ± 63 (373.15 K).

Consider `CCCO` [propan-1-ol] + CO[PH](=O)[O-].Cn1cc[n+](C)c1, for which the activity coefficient (343.15 K) was found to be 0.25 ± 0.03.

Consider `CCCCCCCCCCC` [undecane] + CO[PH](=O)[O-].Cn1cc[n+](C)c1, for which the activity coefficient (313.15 K) was found to be 1530 ± 110, the activity coefficient (323.15 K) is 1470 ± 100, the activity coefficient (333.15 K) was 1400 ± 97 and the activity coefficient (343.15 K) is 1330 ± 92.

As for `CCCC(C)=O` [pentan-2-one] + CCn1cc[n+](C)c1.CO[PH](=O)[O-], the activity coefficient came to 6.12 ± 0.42 (313.15 K), 6.13 ± 0.42 (333.15 K), 6.15 ± 0.42 (353.15 K) and 6.18 ± 0.42 (373.15 K).

Turning to `CCN(CC)CC` [triethylamine] + CO[PH](=O)[O-].Cn1cc[n+](C)c1, the activity coefficient runs as follows: (313.15 K) 9.04 ± 0.62; (323.15 K) 12.7 ± 0.9.

Regarding `CCCCCCCCC` [nonane] + CCn1cc[n+](C)c1.CO[PH](=O)[O-], the activity coefficient runs as follows: (313.15 K) 617 ± 42; (333.15 K) 485 ± 33.

With `CCOCC` [diethyl ether] + CCn1cc[n+](C)c1.CO[PH](=O)[O-], the activity coefficient (313.15 K) stood at 1.99 ± 0.14, the activity coefficient (333.15 K) came out at 2.43 ± 0.17, the activity coefficient (353.15 K) is 3.5 ± 0.24 and the activity coefficient (373.15 K) is 4.6 ± 0.31.

On to `C1CCCCC1` [cyclohexane] + CO[PH](=O)[O-].Cn1cc[n+](C)c1, for which the activity coefficient (313.15 K) turned out to be 129 ± 9.

For the molecule `CCCCCCCCCCCC` [dodecane] + CO[PH](=O)[O-].Cn1cc[n+](C)c1, the activity coefficient reads like this: (313.15 K) 2350 ± 160; (323.15 K) 1920 ± 130; (333.15 K) 1790 ± 120.

Take `C1CCCCC1` [cyclohexane] + CCn1cc[n+](C)c1.CO[PH](=O)[O-]: the activity coefficient (313.15 K) worked out at 89 ± 6 and the activity coefficient (333.15 K) was 43.1 ± 3.

Turning to `CCC[N+](=O)[O-]` [1-nitropropane] + CCn1cc[n+](C)c1.CO[PH](=O)[O-], the activity coefficient reads like this: (313.15 K) 2.68 ± 0.18; (333.15 K) 2.69 ± 0.18; (353.15 K) 2.75 ± 0.19; (373.15 K) 2.8 ± 0.19.

With `CCCCCCCCCC` [decane] + CO[PH](=O)[O-].Cn1cc[n+](C)c1, the activity coefficient was 1220 ± 84 (313.15 K) and 1210 ± 84 (323.15 K).
